Measured values reported in patent publication US9045461B2, “Phenyl-heteroaryl derivatives and methods of use thereof” (TransTech Pharma, LLC, priority 2010, dated 2015).
Where a name gives a salt, the structure may show the parent alone.

Columns and labels:
[1] = target: T1, sRAGE binding to S100b (Homo sapiens, UniProt Q15109); experiment: RAGE binding assay (ELISA), S100b as the RAGE ligand; conditions: compounds tested in hydrochloride salt form, concentration at which 50% signal has been inhibited
T1 construct: extracellular domain can be isolated by proteolysis of RAGE to generate soluble RAGE (sRAGE) comprised of the V and C domains
Method: (§1) The following assay method may be used to identify compounds of Formula (I) or pharmaceutically acceptable salts thereof which are useful as inhibitors of binding of physiological RAGE ligands, such as S100b and β-amyloid, to RAGE.
(§2) S100b, β-amyloid, or CML (500 ng/100 μL/well) in 100 mM sodium bicarbonate/sodium carbonate buffer (pH 9.8) is loaded onto the wells of a NUNC Maxisorp flat bottom 96-well microtitre plate. The plate is incubated at 4° C. overnight. The wells are aspirated and treated with 50 mM imidazole buffer saline (pH 7.2) (with 5 mM CaCl2/MgCl2) containing 1% bovine serum albumin (BSA) (300 μL/well) for 1 h at RT. The wells are aspirated.
(§3) Test compounds are dissolved in nanopure water (concentration: 10-100 μM). DMSO may be used as co-solvent. 25 μL of test compound solution in 4% DMSO is added, along with 75 μL sRAGE (6 nM FAC) to each well and samples are incubated for 1 h at 37° C. The wells are washed several times with 155 mM NaCl pH 7.2 buffer saline and are soaked for several seconds between each wash.
(§4) Non-radioactive detection is performed by adding:
(§5) 10 μL Biotinylated goat F(ab′)2 Anti-mouse IgG. (8.0×10-4 mg/mL, FAC), 5 μL Alk-phos-Streptavidin (3×10-3 mg/mL FAC), 0.42 μL per 5 mL Monoclonal antibody for sRAGE (FAC 6.0×10-3 mg/mL) to 5 mL 50 mM imidazole buffer saline (pH 7.2) containing 0.2% bovine serum albumin and 5 mM CaCl2. The mixture is incubated for 30 minutes at RT.
(§6) 100 μL of complex is added to each well and incubation is allowed to proceed at rt for 1 h. Wells are washed several times with wash buffer and soaked several seconds between each wash. 100 μL 1 mg/mL (pNPP) in 1 M diethanolamine (pH adjusted to 9.8 with HCl) is added. Color is allowed to develop in the dark for 30 min to 1 h at rt. The reaction is quenched with 10 μL of stop solution (0.5-1.0 N NaOH in 50% ethanol) and the absorbance is measured spectrophotometrically with a microplate reader at 405 nm.
(§7) The IC50 (μM) value in the ELISA assay represents the concentration of compound at which 50% signal has been inhibited.

[2] = target: T2, sRAGE binding to β-amyloid (Homo sapiens, UniProt Q15109); experiment: RAGE binding assay (ELISA), β-amyloid as the RAGE ligand; conditions: compounds tested in hydrochloride salt form, concentration at which 50% signal has been inhibited
T2 construct: extracellular domain can be isolated by proteolysis of RAGE to generate soluble RAGE (sRAGE) comprised of the V and C domains
Method: as §1, §2, §3, §4, §5, §6, §7

T1 sequence (Q15109 23-342 limits assumed): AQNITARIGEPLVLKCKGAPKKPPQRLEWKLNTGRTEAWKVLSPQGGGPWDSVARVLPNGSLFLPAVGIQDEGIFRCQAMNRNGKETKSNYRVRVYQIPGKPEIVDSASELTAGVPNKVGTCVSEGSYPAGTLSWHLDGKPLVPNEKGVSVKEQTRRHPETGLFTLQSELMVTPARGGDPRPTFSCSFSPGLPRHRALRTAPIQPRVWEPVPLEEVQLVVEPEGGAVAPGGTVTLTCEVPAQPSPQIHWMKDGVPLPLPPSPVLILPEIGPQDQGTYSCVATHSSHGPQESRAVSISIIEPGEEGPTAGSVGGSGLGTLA
T2 sequence (Q15109 23-342 limits assumed): as above

Row | Compound | IC50 [1] | IC50 [2]
1 | CCCCc1nnc(OC2CCN(C)CC2)cc1-c1ccc(OC2CCCCC2)c(-c2nnnn2C)c1 [Example 70, 3-Butyl-4-[4-cyclohexyloxy-3-(1-methyl-1H-tetrazol-5-yl)-phenyl]-6-(1-methyl-piperidin-4-yloxy)-pyridazine dihydrochloride] | 2170 nM | 2940 nM
2 | CCCCc1nnc(OCC2CN(C)C2)cc1-c1ccc(OCc2ccccc2)cc1 [Example 9, 4-(4-Benzyloxy-phenyl)-3-butyl-6-(1-methyl-azetidin-3-ylmethoxy)-pyridazine dihydrochloride] | 2700 nM | 3140 nM
3 | CCCCc1nnc(C(=O)NCC2CN(C)CCC2(F)F)cc1-c1ccc(OC2CCCCC2)cc1 (centres unmarked) [Example 99, 6-Butyl-5-(4-cyclohexyloxy-phenyl)-pyridazine-3-carboxylic acid (4,4-difluoro-1-methyl-piperidin-3-ylmethyl)-amide dihydrochloride] | 1820 nM | 1810 nM
4 | CCCCc1nnc(C(=O)NC[C@@H](O)CN(C)C)cc1-c1ccc(OC2CCCCC2)cc1 [Example 88, 6-Butyl-5-(4-cyclohexyloxy-phenyl)-pyridazine-3-carboxylic acid ((R)-3-dimethylamino-2-hydroxy-propyl)-amide dihydrochloride] | 2030 nM | 2460 nM
5 | CCCCc1nnc(C(=O)NCC2(O)CCN(C)CC2)cc1-c1ccc(OC2CCCCC2)cc1 [Example 94, 6-Butyl-5-(4-cyclohexyloxy-phenyl)-pyridazine-3-carboxylic acid (4-hydroxy-1-methyl-piperidin-4-ylmethyl)-amide dihydrochloride] | 2550 nM | 1950 nM
6 | CCCCc1nnc(OC[C@@H]2CCCN3CCCC[C@H]23)cc1-c1ccc(OC2CCCCC2)cc1 [Example 28, (1R,9aR)-1-[6-Butyl-5-(4-cyclohexyloxy-phenyl)-pyridazin-3-yloxymethyl]-octahydroquinolizine dihydrochloride] | 1750 nM | 1660 nM
7 | CCCCc1nnc(C(=O)N[C@H]2CN3CCC2CC3)cc1-c1ccc(OCc2ccccc2)cc1 [Example 83, 5-(4-Benzyloxy-phenyl)-6-butyl-pyridazine-3-carboxylic acid (R)-(1-aza-bicyclo[2.2.2]oct-3-yl)-amide dihydrochloride] | 1180 nM | 1130 nM
8 | CCCCc1nnc(C(=O)N2CC[C@@H](CN(C)C)[C@@H](OC)C2)cc1-c1ccc(OC2CCCCC2)cc1 (racemic) [Example 102, (±)-cis-[6-Butyl-5-(4-cyclohexyloxy-phenyl)-pyridazin-3-yl]-((3R,4S)-4-dimethylaminomethyl-3-methoxy-piperidin-1-yl)-methanone dihydrochloride] | 2610 nM | 1460 nM
9 | CCCCc1nnc(OC2CCN(C)CC2)cc1-c1ccc(OC2CCCCC2)c(C#N)c1 [Example 67, 5-[3-Butyl-6-(1-methyl-piperidin-4-yloxy)-pyridazin-4-yl]-2-cyclohexyloxy-benzonitrile dihydrochloride] | 1700 nM | 3200 nM
10 | CCCCc1nnc(C(=O)N2CCO[C@H](CN(C)C)C2)cc1-c1ccc(OC2CCCCC2)cc1 [Example 98, [6-Butyl-5-(4-cyclohexyloxy-phenyl)-pyridazin-3-yl]-((R)-2-dimethylaminomethyl-morpholin-4-yl)-methanone dihydrochloride] | 1990 nM | 1620 nM

Second part, the molecule after the results:

Row | IC50 [1] | IC50 [2] | Compound
11 | 1130 nM | 1830 nM | CN1CCC(Oc2cc(-c3ccc(OC4CCCCC4)cc3)c(C3CCCCC3)nn2)CC1 [Example 60, 3-cyclohexyl-4-(4-cyclohexyloxy-phenyl)-6-(1-methyl-piperidin-4-yloxy)-pyridazine dihydrochloride]
12 | 660 nM | 940 nM | CCCCc1nnc(C(=O)NCC2CN(C)CCC2OC)cc1-c1ccc(OC2CCCCC2)cc1 (centres unmarked) [Example 101, 6-Butyl-5-(4-cyclohexyloxy-phenyl)-pyridazine-3-carboxylic acid (4-methoxy-1-methyl-piperidin-3-ylmethyl)-amide dihydrochloride]
13 | 840 nM | 680 nM | CCCCc1nnc(OC2CCN(C)CC2)cc1-c1ccc(OC2CCCCC2)c(N(CC(C)C)C(C)=O)c1 [Example 63, N-{5-[3-butyl-6-(1-methyl-piperidin-4-yloxy)-pyridazin-4-yl]-2-cyclohexyloxy-phenyl}-N-isobutyl-acetamide dihydrochloride]
14 | 1380 nM | 1120 nM | CCCCc1nnc(OC2CCN(CC(C)(C)O)CC2)cc1-c1ccc(OC2CCCCC2)cc1 [Example 22, 1-{4-[6-Butyl-5-(4-cyclohexyloxy-phenyl)-pyridazin-3-yloxy]-piperidin-1-yl}-2-methyl-propan-2-ol dihydrochloride]
15 | 1350 nM | 1250 nM | CCCCc1nnc(OC[C@H]2CN(C)CC[C@@H]2OC)cc1-c1ccc(OC2CCCCC2)cc1 (racemic) [Example 46, (±)-trans-3-Butyl-4-(4-cyclohexyloxy-phenyl)-6-(4-methoxy-1-methyl-piperidin-3-ylmethoxy)-pyridazine dihydrochloride]
16 | 1560 nM | 1960 nM | CCCCc1nnc(C(=O)NC2CCN(C)CC2)cc1-c1ccc(OC2CCCCC2)cc1 [Example 84, 6-Butyl-5-(4-cyclohexyloxy-phenyl)-pyridazine-3-carboxylic acid (1-methyl-piperidin-4-yl)-amide dihydrochloride]
17 | 1120 nM | 1000 nM | CCCCc1nnc(C(=O)N(C2CC2)C2CCN(C)CC2)cc1-c1ccc(OC2CCCCC2)cc1 [Example 115, 6-Butyl-5-(4-cyclohexyloxy-phenyl)-pyridazine-3-carboxylic acid cyclopropyl-(1-methyl-piperidin-4-yl)-amide dihydrochloride]
18 | 880 nM | 840 nM | CCCCc1nnc(OC2CCN(C)CC2)cc1-c1ccc(OC2CCCCC2)c(N(CC(C)C)S(C)(=O)=O)c1 [Example 64, N-{5-[3-butyl-6-(1-methyl-piperidin-4-yloxy)-pyridazin-4-yl]-2-cyclohexyloxy-phenyl}-N-isobutyl-methanesulfonamide dihydrochloride]
19 | 1540 nM | 1780 nM | CCCCc1nnc(C(=O)NCC2CNCCO2)cc1-c1ccc(OC2CCCCC2)cc1 (centres unmarked) [Example 90, 6-Butyl-5-(4-cyclohexyloxy-phenyl)-pyridazine-3-carboxylic acid (morpholin-2-ylmethyl)-amide dihydrochloride]
20 | 780 nM | 1110 nM | CCCCc1nnc(OC2CCN(CCOC)CC2)cc1-c1ccc(OC2CCCCC2)cc1 [Example 23, 3-Butyl-4-(4-cyclohexyloxy-phenyl)-6-[1-(2-methoxy-ethyl)-piperidin-4-yloxy]-pyridazine dihydrochloride]
21 | 1140 nM | 1390 nM | CCCCc1nnc(C(=O)NC[C@H]2CCCN2CC)cc1-c1ccc(OC2CCCCC2)cc1 [Example 91, 6-Butyl-5-(4-cyclohexyloxy-phenyl)-pyridazine-3-carboxylic acid ((R)-1-ethyl-pyrrolidin-2-ylmethyl)-amide dihydrochloride]
22 | 590 nM | 1160 nM | CCCCc1nnc(C(=O)NCC2CN(C)CCC2O)cc1-c1ccc(OC2CCCCC2)cc1 (centres unmarked) [Example 100, 6-Butyl-5-(4-cyclohexyloxy-phenyl)-pyridazine-3-carboxylic acid (4-hydroxy-1-methyl-piperidin-3-ylmethyl)-amide dihydrochloride]
